Experimental findings from patent US12544451B2, “Intracellular delivery compositions” (BIOND BIOLOGICS LTD., priority 2021, dated 2026) are described below.

Data set [1] concerns A375 cells. In words: Intracellular BRAF inhibition: Annexin V apoptosis assay in A375 cells (IncuCyte, CellTiter-Glo normalisation). In kind it is cell-based. The settings on record: 1 μM or 3 μM agent, BRAF inhibitor at 10 μM. As to the method:
FIGS. 42A-42D. A375 cells were seeded in 96 plate wells for 24 h to allow cells adherence (1500 cells/well). To each well a sample of the tested agent was added at the desired concentration (42A-42B) 1 μM; (42C-42D) […], except BRAF inhibitor, PF-04880594 that was added at 10 μM. (42A, 42C) Red area obtained from the Annexin V red reagent, a commonly used fluorescent dye identifying apoptotic cells, monitored in IncuCyte®. (42B, 42D) Red area normalized to the value obtained by CellTiter-Glo corresponding to intact cells.
Random modification was achieved by reaction of 1C5-Hel20-LC with PEI1800 in the presence of EDC, to give 1C5-Hel20-LC-r-C(O)—NH-PEI1800 (S8). The different constructs of payload conjugated directly to PEI were evaluated for their ability to penetrate A375 cells and induce apoptosis following BRAF inhibition. […]
1C5-Hel20-LC-HSA-PEI (S5C)×n conjugates were prepared by reduction of 1C5-Hel20-LC and activation with 2,2′-Dithiobis(5-nitropyridine) followed by conjugation to HSA-PEI×n. Intracellular BRAF inhibition by the different constructs was evaluated by a functional assay in A375 cells. The different conjugates were incubated with A375 cells in the presence of Annexin V red reagent, for 6 days, while monitoring fluorescence in IncuCyte® to identify apoptotic cells (FIG. 42A, C). […]

For data set [2], the system named is A375 cells. In words: Internalization of PEI-modified IgG (4.5 PEIs) in the presence of endocytosis inhibitors. In kind it is cell-based. The settings on record: overnight, PEI-modified mouse IgG (4.5 PEIs). As to the method:
Cationized moieties are thought to internalize using a natural endocytosis mechanism. The two relevant endocytosis mechanisms are caveolin- and clathrin-mediated endocytosis. The exact mechanism of internalization was elucidated by performing the internalization of PEI-modified IgG in the presence of known specific endocytosis inhibitors. A375 cells were incubated overnight with PEI-modified mouse IgG (4.5 PEIs) in the presence of Clathrin inhibitors (Amantadine or Chlorpromazine) or a Caveolin inhibitor (Genistein). […] This corroborates that Caveolin-mediated endocytosis is exploited by the PEI-modified payloads for internalization as inhibition of Clathrin-mediated endocytosis caused a compensatory increase in Caveolin-mediated endocytosis in the cells.

Data set [3] in a line: Zeta potential measurement (Zeta Sizer Ultra). The settings on record: alternative carriers and HSA before and after PEI modification; STD in separate column. The data set is classed as physicochemical.
Protocol: Zeta potential measurements were preformed using Zeta Sizer Ultra (Malvern Instruments). Samples' buffers were exchanged to 1 mM NaCl at 1 mg/mL protein concentration. 20 μL from each sample was loaded in zeta cells (DTS1070), five repeats for each sample were measured and the mean zeta potential in mV was obtained for each repeat. The average for the five measurements is reported with the standard deviation. The measurements were performed under the following conditions: temperature 25° C.; run numbers for each repeat 10-40; equilibration time: 60 seconds, without pause after sub runs; 60 seconds pause between repeats; voltage was selected automatic and monomodal analysis method was used in the data processing.
Zeta potential measurements were preformed using Zeta Sizer Ultra (Malvern Instruments), samples buffer was exchanged to 1 mM NaCl at 1 mg/mL protein concentration. 20 μL from each sample were loaded in zeta cells (DTS1070), five repeats for each sample were measured and the mean zeta potential in mV was obtained.

As for `N#CCCNc1nccc(-c2cn(CC(F)F)nc2-c2cnc3[nH]ccc3c2)n1` [PF-04880594, reference compound], in the data set on A375 cells [1], the “apoptosis (Annexin V red signal)” value is “highly potent cell killer”. As to `CN(C)CCCN1c2ccccc2Sc2ccc(Cl)cc21` [Chlorpromazine], the “effect on internalization of PEI-modified IgG” value in the data set on A375 cells [2] is on record as “resulted in increased internalization”. Consider Fibrinogen, for which the “Zeta potential (mV)” value in data set [3] is recorded as −1.4 mV. For `O=c1c(-c2ccc(O)cc2)coc2cc(O)cc(O)c12` [Genistein], in the data set on A375 cells [2], the “effect on internalization of PEI-modified IgG” value was “inhibited the internalization of PEI-modified IgG”.
